Test results as given in patent US20140377340A1, “HLA-DR BINDING PEPTIDES AND THEIR USES” (priority 2007, published 2014).

How the values were obtained:
[1] = test system: short term T cell lines from breast or ovarian cancer patients; experiment: IFN-γ ELISpot analysis of short term T cell lines (peptide versus protein fragment; natural processing); assay type: cell-based, human; conditions: T cell lines respond to culture peptide and to protein fragment; FIGS. 5 and 6
From the text: IFN-γ ELISpot analysis of short term T cell lines generated against HER-2/neu peptides, p53 (Panel A), p83 (Panel B), p88 (Panel C) and p885 (Panel D). […] Each bar is the mean (s.e.m.) of three replicates.
FIG. 6 is identical to FIG. 5 except that the results were obtained using IGFBP-2 derived helper epitopes.

[2] = test system: 15 different HLA-DR molecules; experiment: HLA-DR binding assays, panel of 15 different HLA-DR molecules (breadth of binding); conditions: number of the 15 HLA-DR molecules bound (binders: 1000 nM or better)
[3] = biological target: T1, purified HLA DRB1*0101 (Homo sapiens, UniProt P01903+P01911, A100R/D57E/F55L/F60I/F76Y/I96L/L162R/M171V/P40L/Q125E/R42F/V115G/Y59C); experiment: HLA-DR radioligand binding inhibition assay, DRB1*0101; conditions: IC50 nM purified HLA DRB1 *0101, purified HLA DRB1*0101
T1 construct: purified from EBV transformed homozygous cell lines or single MHC allele transfected 721.221, C1R, or fibroblast lines; made in house
In short: (§1)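 First, HLA-DR was purified from lysates on LB3.1 columns. Then 1 μM to 1 nM protein was incubated 2 days with 1-10 nM radiolabeled peptide at pH 4 to 7. Finally, complexes were captured for 3 hours and bound cpm determined.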

[4] = biological target: T2, purified HLA DRB1*0301 (Homo sapiens, UniProt P01903+P01911, A100K/A102G/A103R/A169T/F55Y/I96L/K41T/L162R/M171V/P40S/Q125H/Q178H/Q39Y/R42S/S66N/T106N/T262R/W38E/Y61H); experiment: HLA-DR radioligand binding inhibition assay, DRB1*0301; conditions: IC50 nM purified HLA DRB1 *0301, purified HLA DRB1*0301
T2 construct: purified from EBV transformed homozygous cell lines or single MHC allele transfected 721.221, C1R, or fibroblast lines; made in house
Method: (§2) Instead, wells of an opaque white 96-well Optiplate (Packard) are coated with 3 μg (100 μl@ 30 μg/ml) of HLA-specific antibody (Ab) that “capture” complexes of radiolabeled MHC and unlabeled peptide transferred from the molecular binding assay plate in 100 μl of 0.05% NP40/PBS. After a 3-hour incubation period, the supernatant is decanted and scintillation fluid (Microscint 20) added. Captured complexes are then measured on a microplate scintillation and luminescence counter (TopCount NXTTM; Packard).
(§3) HLA-DR purification. Fifteen distinct HLA-DR molecules were used in quantitative assays to measure the binding of peptides to solubilized HLA-DR molecules. […] Briefly, columns of inactivated Sepharose CL4B and Protein A Sepharose were used as pre-columns. HLA-DR molecules were captured by passage of lysates over LB3.1 monoclonal antibody (anti-HLA-DRA) columns. Antibody columns were washed with 10 mM Tris-HCL, pH8.0 with 1% (v/v) NP-40, followed by PBS containing 0.4% (w/v) n-octylglucoside.
(§4) Briefly, 1-10 nM of radiolabeled peptide was co-incubated for 2 days at either room temperature or 37° C. with 1 μM to 1 nM purified HLA-DR molecules in the presence of a cocktail of protease inhibitors. Assays were performed at various pH conditions, ranging from pH 4 to pH 7. […] After incubation, the percentage of HLA-DR-bound radioactivity is determined by capturing HLA-DR/peptide complexes on Optiplates (Packard Instruments, Meriden, Conn.) coated with the LB3.1 antibody and determining bound counts per minute using the TopCount microscintillation counter (Packard Instruments).

[5] = biological target: T3, purified HLA DRB1*0401 (Homo sapiens, UniProt P01903+P01911, A100K/A169T/F76Y/I96L/K127E/L162R/M171V/N62H/P40V/Q125Y/R42H/S133A/S149N/S66Y/V115G/V209L/W38E); experiment: HLA-DR radioligand binding inhibition assay, DRB1*0401; conditions: IC50 nM purified HLA DRB1 *0401, purified HLA DRB1*0401
T3 construct: purified from EBV transformed homozygous cell lines or single MHC allele transfected 721.221, C1R, or fibroblast lines; made in house
In short: as §1

[6] = biological target: T4, purified HLA DRB1*0802 (Homo sapiens, UniProt P01903+P01911, A100R/A103L/A169T/F76Y/H45Y/I96F/K41T/L162R/M171V/P40S/Q125H/Q178H/Q39Y/Q99D/R218S/R42G/S66Y/V115G/W38E); experiment: HLA-DR radioligand binding inhibition assay, DRB1*0802; conditions: IC50 nM purified HLA DRB1 *0802, purified HLA DRB1*0802
T4 construct: purified from EBV transformed homozygous cell lines or single MHC allele transfected 721.221, C1R, or fibroblast lines; made in house
Method: as §2
as §3, with “n-octylglucoside. […] The pH was reduced to 8.0 and the eluates were concentrated by centrifugation in Centriprep 30 concentrators at 2000 rpm (Amicon, Beverly, Mass.).” for “n-octylglucoside.”
as §4, with “Instruments). […] Competitor peptides are tested in 2-4 complete, independent experiments, at concentrations ranging from […].” for “Instruments).”

[7] = biological target: T5, purified HLA DRB1*1201 (Homo sapiens, UniProt P01903+P01911, A100R/A169T/D57E/D86V/F55L/H45Y/K41T/L162R/M171V/P40S/Q125H/Q178H/Q39Y/Q99D/R42G/S66L/T262R/V114A/V67L/W38E/Y59H/Y61H/Y89S); experiment: HLA-DR radioligand binding inhibition assay, DRB1*1201
T5 construct: purified from EBV transformed homozygous cell lines or single MHC allele transfected 721.221, C1R, or fibroblast lines; made in house
Method: as §2
as §3, with “n-octylglucoside. […] The pH was reduced to 8.0 and the eluates were concentrated by centrifugation in Centriprep 30 concentrators at 2000 rpm (Amicon, Beverly, Mass.).” for “n-octylglucoside.”
as §4, with “Instruments). […] Competitor peptides are tested in 2-4 complete, independent experiments, at concentrations ranging from […].” for “Instruments).”

[8] = biological target: T6, purified HLA DRB1*1501 (Homo sapiens, UniProt P01903+P01911); experiment: HLA-DR radioligand binding inhibition assay, DRB1*1501
T6 construct: purified from EBV transformed homozygous cell lines or single MHC allele transfected 721.221, C1R, or fibroblast lines; made in house
In short: as §1

[9] = biological target: T7, purified HLA DRB3*0101 (Homo sapiens, UniProt P01903+P79483); experiment: HLA-DR radioligand binding inhibition assay, DRB3*0101; conditions: IC50 nM purified HLA DRB3 *0101, purified HLA DRB3*0101
T7 construct: purified from EBV transformed homozygous cell lines or single MHC allele transfected 721.221, C1R, or fibroblast lines; made in house
Method: as §2
as §3, with “n-octylglucoside. […] The pH was reduced to 8.0 and the eluates were concentrated by centrifugation in Centriprep 30 concentrators at 2000 rpm (Amicon, Beverly, Mass.).” for “n-octylglucoside.”
as §4, with “Instruments). […] Competitor peptides are tested in 2-4 complete, independent experiments, at concentrations ranging from […].” for “Instruments).”

[10] = biological target: T8, purified HLA DRB5*0101 (Homo sapiens, UniProt P01903+Q30154); experiment: HLA-DR radioligand binding inhibition assay, DRB5*0101; conditions: IC50 nM purified HLA DRB5 *0101, purified HLA DRB5*0101
T8 construct: purified from EBV transformed homozygous cell lines or single MHC allele transfected 721.221, C1R, or fibroblast lines; made in house
In short: as §1

[11] = biological target: T9, purified HLA DRB1*0404 (Homo sapiens, UniProt P01903+P01911, A100R/A169T/F76Y/I96L/K127E/L162R/M171V/N62H/P40V/Q125Y/R42H/S133A/S149N/S66Y/V209L/W38E); experiment: HLA-DR radioligand binding inhibition assay, DRB1*0404; conditions: IC50 nM purified HLA DRB1 *0404, purified HLA DRB1*0404
T9 construct: purified from EBV transformed homozygous cell lines or single MHC allele transfected 721.221, C1R, or fibroblast lines; made in house
In short: as §1

[12] = biological target: T10, purified HLA DRB1*1101 (Homo sapiens, UniProt P01903+P01911, A100R/A169T/A87E/I96F/K41T/L162R/M171V/P40S/Q125H/Q178H/Q39Y/Q99D/R42S/S66Y/T262R/V115G/W38E); experiment: HLA-DR radioligand binding inhibition assay, DRB1*1101; conditions: IC50 nM purified HLA DRB1 *1101, purified HLA DRB1*1101
T10 construct: purified from EBV transformed homozygous cell lines or single MHC allele transfected 721.221, C1R, or fibroblast lines; made in house
In short: as §1

T10 sequence (P01903 26-254, other chains not shown): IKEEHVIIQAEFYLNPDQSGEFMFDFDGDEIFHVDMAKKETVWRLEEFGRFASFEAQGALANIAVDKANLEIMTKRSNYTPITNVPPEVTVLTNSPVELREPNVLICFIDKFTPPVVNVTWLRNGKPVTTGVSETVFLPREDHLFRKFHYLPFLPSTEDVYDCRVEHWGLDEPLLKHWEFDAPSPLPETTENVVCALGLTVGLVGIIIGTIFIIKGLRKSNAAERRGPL

Structure (SMILES)	naturally processed and presented antigen [1]	Total XRN [2]	IC50 [3]	IC50 [4]	IC50 [5]	IC50 [6]	IC50 [7]	IC50 [8]	IC50 [9]	IC50 [10]	IC50 [11]	IC50 [12]
CC[C@H](C)[C@H](NC(=O)[C@H](CC(C)C)NC(=O)[C@@H](NC(=O)[C@@H](N)Cc1ccc(O)cc1)C(C)C)C(=O)N[C@@H](C)C(=O)N[C@@H](Cc1c[nH]cn1)C(=O)N[C@@H](CC(N)=O)C(=O)N[C@@H](CCC(N)=O)C(=O)N[C@H](C(=O)N[C@@H](CCCNC(=N)N)C(=O)N[C@@H](CCC(N)=O)C(=O)N[C@H](C(=O)N1CCC[C@H]1C(=O)N[C@@H](CC(C)C)C(=O)N[C@@H](CCC(N)=O)C(=O)O)C(C)C)C(C)C [Peptide 9019.0033]	naturally processed and presented antigens	14	–	–	–	–	–	–	–	–	–	–
CC[C@H](C)[C@H](NC(=O)[C@H](CCCNC(=N)N)NC(=O)[C@H](CC(C)C)NC(=O)[C@H](CCCNC(=N)N)NC(=O)[C@H](CCC(N)=O)NC(=O)[C@H](CC(C)C)NC(=O)[C@@H]1CCCN1C(=O)[C@@H](NC(=O)[C@H](CCC(N)=O)NC(=O)[C@H](CCCNC(=N)N)NC(=O)[C@@H](NC(=O)[C@H](CCC(N)=O)NC(=O)[C@H](CC(N)=O)NC(=O)[C@@H](N)Cc1c[nH]cn1)C(C)C)C(C)C)C(=O)N[C@H](C(=O)O)C(C)C [Peptide 9019.0034]	naturally processed and presented antigens	12	–	–	–	–	–	–	–	–	–	–
CC[C@H](C)[C@H](NC(=O)[C@H](CS)NC(=O)[C@H](Cc1c[nH]c2ccccc12)NC(=O)[C@@H](N)CCCNC(=N)N)C(=O)N1CCC[C@H]1C(=O)N[C@@H](Cc1c[nH]c2ccccc12)C(=O)N[C@@H](CCC(N)=O)C(=O)N[C@@H](CCCNC(=N)N)C(=O)N[C@@H](CC(C)C)C(=O)N[C@@H](CC(C)C)C(=O)N[C@@H](CC(C)C)C(=O)N[C@H](C(=O)N[C@@H](C)C(=O)N[C@@H](CO)C(=O)N[C@@H](CC(C)C)C(=O)O)[C@@H](C)O [Peptide 9019.0104]	–	–	1470 nM	7860 nM	426 nM	263 nM	1560 nM	61 nM	> 20000 nM	4010 nM	–	–
CC[C@H](C)[C@H](NC(=O)[C@H](CO)NC(=O)[C@@H]1CCCN1C(=O)[C@H](CCCCN)NC(=O)[C@@H]1CCCN1C(=O)[C@H](CC(C)C)NC(=O)[C@H](CCC(=O)O)NC(=O)[C@H](C)NC(=O)[C@H](CO)NC(=O)[C@@H](NC(=O)[C@@H](NC(=O)[C@@H](NC(=O)[C@@H](N)[C@@H](C)O)[C@@H](C)CC)[C@@H](C)O)C(C)C)C(=O)N[C@@H](CO)C(=O)N[C@@H](CO)C(=O)O [Peptide 9019.0132]	–	–	–	74 nM	–	> 20000 nM	> 20000 nM	–	> 20000 nM	–	7000 nM	> 20000 nM
